Measured values: patent publication US9328374B2, “Selective culture medium and method for detecting carbapenem-resistant bacteria in a test sample” (Institut National de la Sante et de la Recherche Medicale …, priority 2011, dated 2016)

Legend:
E. coli = experiment: MIC of imipenem, ertapenem and meropenem; type: cell-based, Escherichia coli
enterobacterial isolates = experiment: MIC of imipenem, ertapenem and meropenem (groups of isolates, other species); type: cell-based, Enterobacteriaceae
E. aerogenes = experiment: MIC of imipenem, ertapenem and meropenem; type: cell-based, Enterobacter aerogenes
P. stuartii = experiment: MIC of imipenem, ertapenem and meropenem; type: cell-based, Providencia stuartii
P. mirabilis = experiment: MIC of imipenem, ertapenem and meropenem; type: cell-based
P. rettgeri = experiment: MIC of imipenem, ertapenem and meropenem; type: cell-based, Providencia rettgeri
S. typhimurium = experiment: MIC of imipenem, ertapenem and meropenem; type: cell-based

## C[C@@H](O)[C@H]1C(=O)N2C(C(=O)O)=C(SCCN=CN)C[C@H]12 [IPM, imipenem]
E. coli; E. coli BOU (OXA-48 + CTX-M-15)
  MIC: 0.5 mg/L
E. coli; E. coli BOU, OXA-48 + CTX-M-15
  MIC: 0.5 mg/L
E. coli; E. coli COL (KPC-2)
  MIC: 4 mg/L
E. coli; E. coli COL, KPC-2 + TEM-1 + CTX-M-9
  MIC: 4 mg/L
E. coli; E. coli DIH (VIM-19)
  MIC: 8 mg/L
E. coli; E. coli DIH, VIM-19
  MIC: 8 mg/L
E. coli; E. coli DIN, KPC-2 + TEM-1 + OXA-1
  MIC: 1 mg/L
E. coli; E. coli E14 (CTX-M-14)
  MIC: 0.12 mg/L
E. coli; E. coli E14, CTX-M-14, non-carbapenemase producer
  MIC: 0.12 mg/L
E. coli; E. coli ECA (ACC-1)
  MIC: 0.12 mg/L
E. coli; E. coli ECA, ACC-1, non-carbapenemase producer
  MIC: 0.12 mg/L
E. coli; E. coli EVB (VEB-1)
  MIC: 0.12 mg/L
E. coli; E. coli EVB, VEB-1, non-carbapenemase producer
  MIC: 0.12 mg/L
E. coli; E. coli FOR (CTX-M-15)
  MIC: 0.12 mg/L
E. coli; E. coli FOR, CTX-M-15, non-carbapenemase producer
  MIC: 0.12 mg/L
E. coli; E. coli GEN (NDM-1 + OXA-1 + CMY-30 + TEM-1)
  MIC: 8 mg/L
E. coli; E. coli GEN, NDM-1 + TEM-1 + CMY-30 + OXA-1
  MIC: 8 mg/L
E. coli; E. coli GOG (OXA-48 + CTX-M-24)
  MIC: 0.5 mg/L
E. coli; E. coli GUE (NDM-1 + OXA-1 + TEM-1)
  MIC: 3 mg/L
E. coli; E. coli GUE, NDM-1 + TEM-1 + OXA-1
  MIC: 3 mg/L
E. coli; E. coli HAN (OXA-48 + CTX-M-15)
  MIC: 3 mg/L
E. coli; E. coli HAN, OXA-48 + CTX-M-15
  MIC: 3 mg/L
E. coli; E. coli HB4 (OmpC-, OmpF-)
  MIC: 0.12 mg/L
E. coli; E. coli HB4, (OmpC-, OmpF-), non-carbapenemase producer, porin deficiency
  MIC: 0.12 mg/L
E. coli; E. coli IR5 (NDM-1 + CTX-M-15 + TEM-1)
  MIC: 16 mg/L
E. coli; E. coli IR5, NDM-1 + TEM-1 + CTX-M-15
  MIC: 16 mg/L
E. coli; E. coli JAP (IMP-1)
  MIC: 0.5 mg/L
E. coli; E. coli JAP, IMP-1
  MIC: 0.5 mg/L
E. coli; E. coli LIL, KPC-2 + TEM-1 + OXA-9
  MIC: 2 mg/L
E. coli; E. coli MAD (VIM-1 + CTX-M-3)
  MIC: 1.5 mg/L
E. coli; E. coli MAD, VIM-1+ CTX-M-3
  MIC: 1.5 mg/L
E. coli; E. coli MAR (Overexpressed AmpC)
  MIC: 16 mg/L
E. coli; E. coli MAR, Overexpressed AmpC, non-carbapenemase producer
  MIC: 16 mg/L
E. coli; E. coli MET (Chromosome-encoded extended-spectrum cephalosporinase)
  MIC: 0.12 mg/L
E. coli; E. coli MET, Chromosome-encoded extended-spectrum cephalosporinase, non-carbapenemase producer
  MIC: 0.12 mg/L
E. coli; E. coli NAA (OXA-48 + CTX-M-24)
  MIC: 0.5 mg/L
E. coli; E. coli OM3, OXA-48 + TEM-1 + CTX-M-15
  MIC: 0.5 mg/L
E. coli; E. coli OM20, NDM-1 + TEM-1 + CTX-M-15
  MIC: 2 mg/L
E. coli; E. coli OM22, OXA-48 + TEM-1 + CTX-M-15
  MIC: 0.5 mg/L
E. coli; E. coli PSP (KPC-2)
  MIC: 0.5 mg/L
E. coli; E. coli PSP, KPC-2 + TEM-1 + OXA-1
  MIC: 0.5 mg/L
E. coli; E. coli RIC (NDM-1 + OXA-1 + OXA-10 + CMY-16)
  MIC: 1 mg/L
E. coli; E. coli RIC, NDM-1 + CMY-16 + OXA-1 + OXA-10
  MIC: 1 mg/L
E. coli; E. coli ROB (OXA-48)
  MIC: 0.5 mg/L
E. coli; E. coli ROB, OXA-48
  MIC: 0.5 mg/L
E. coli; E. coli SYD (CMY-2)
  MIC: 0.12 mg/L
E. coli; E. coli SYD, CMY-2, non-carbapenemase producer
  MIC: 0.12 mg/L
E. coli; E. coli TWA, IMP-8 + SHV-12
  MIC: 6 mg/L
E. coli; E. coli ZAN, OXA-48 + TEM-1 + CTX-M-14
  MIC: 0.38 mg/L
E. coli; strain E. coli 1008, TEM-1 + CTX-M-1, non-carbapenemase producer
  MIC: 0.19 mg/L
E. coli; strain E. coli 1034, TEM-1 + SHV-38, non-carbapenemase producer
  MIC: 0.19 mg/L
E. coli; strain E. coli 1048, TEM-1 + SHV-2a, non-carbapenemase producer
  MIC: 0.19 mg/L
E. coli; strain E. coli 10121, CTX-M-2, non-carbapenemase producer
  MIC: 0.19 mg/L
E. coli; strain E. coli AME, OXA-48 + CTX-M-24
  MIC: 0.25 mg/L
E. coli; strain E. coli BON, OXA-48 + TEM-1 + CTX-M-24
  MIC: 0.38 mg/L
E. coli; strain E. coli BOU, OXA-48 + CTX-M-15
  MIC: 0.5 mg/L
E. coli; strain E. coli ECA, ACC-1, non-carbapenemase producer
  MIC: 0.12 mg/L
E. coli; strain E. coli EVB, VEB-1, non-carbapenemase producer
  MIC: 0.12 mg/L
E. coli; strain E. coli FOR, CTX-M-15, non-carbapenemase producer
  MIC: 0.12 mg/L
E. coli; strain E. coli HB4, (OmpC-, OmpF-), non-carbapenemase producer
  MIC: 0.12 mg/L
E. coli; strain E. coli JAP, IMP-1
  MIC: 0.5 mg/L
E. coli; strain E. coli MAR, Overexpressed AmpC, non-carbapenemase producer
  MIC: 16 mg/L
E. coli; strain E. coli MET, Chromosome-encoded extended-spectrum cephalosporinase, non-carbapenemase producer
  MIC: 0.12 mg/L
E. coli; strain E. coli ROB, OXA-48
  MIC: 0.5 mg/L
E. coli; strain E. coli SYD, CMY-2, non-carbapenemase producer
  MIC: 0.12 mg/L
Enterobacterial isolates; S. marcescens 0911033, IMP-1
  MIC: >32 mg/L
Enterobacterial isolates; S. marcescens 1008091, VIM-1+ CTX-M-15
  MIC: >32 mg/L
Enterobacterial isolates; S. marcescens C7052, KPC-2 + TEM-1 + SHV-12
  MIC: >32 mg/L
Enterobacterial isolates; S. marcescens D6403, KPC-2 + TEM-1
  MIC: >32 mg/L
E. aerogenes; E. aerogenes 1009, TEM-24, non-carbapenemase producer
  MIC: 0.19 mg/L
E. aerogenes; E. aerogenes 1085 (TEM-24)
  MIC: 0.12 mg/L
E. aerogenes; E. aerogenes 1085, TEM-24, non-carbapenemase producer
  MIC: 0.12 mg/L
E. aerogenes; strain E. aerogenes 1085, TEM-24, non-carbapenemase producer
  MIC: 0.12 mg/L
P. stuartii; P. stuartii NDM (NDM-1 + OXA-1 + CMY-6)
  MIC: 12 mg/L
P. stuartii; P. stuartii PS1 (NDM-1 + CMY-6 + OXA-1)
  MIC: 12 mg/L
P. stuartii; P. stuartii PS1, NDM-1 + CMY-6 + OXA-1
  MIC: 12 mg/L
P. stuartii; strain P. stuartii PS1, NDM-1 + CMY-6 + OXA-1
  MIC: 12 mg/L
P. mirabilis; P. mirabilis 1031 (CTX-M-14 + TEM-1 + SHV-11)
  MIC: 1.5 mg/L
P. mirabilis; P. mirabilis 1031, CTX-M-14 + TEM-1 + SHV-11, non-carbapenemase producer
  MIC: 1.5 mg/L
P. mirabilis; P. mirabilis PMA (ACC-1)
  MIC: 0.25 mg/L
P. mirabilis; P. mirabilis PMA, ACC-1, non-carbapenemase producer
  MIC: 0.25 mg/L
P. rettgeri; P. rettgeri RAP (OXA-181 + OXA-1)
  MIC: 8 mg/L
P. rettgeri; P. rettgeri RAP, OXA-181 + OXA-1
  MIC: 8 mg/L
P. rettgeri; strain P. rettgeri RAP, OXA-181 + OXA-1
  MIC: 8 mg/L
S. typhimurium; S. typhimurium 1081 (CTX-M-1)
  MIC: 0.25 mg/L
S. typhimurium; S. typhimurium 1081, CTX-M-1, non-carbapenemase producer
  MIC: 0.25 mg/L
S. typhimurium; strain S. typhimurium 1081, CTX-M-1, non-carbapenemase producer
  MIC: 0.25 mg/L
